From patent publication US8003684B2, “Crystal form and pharmaceutical compositions of (+)-R-zileuton” (Cornerstone Therapeutics, Inc., priority 2006, dated 2011)

Experiment: Moisture sorption/desorption analysis
Assay type: physicochemical
Text: The profiles show the change in weight of a sample containing Form I as the relative humidity (herein referred to as “RH”) of the environment is changed between 5% and 95% at a 10% RH interval. […] The vapor sorption/desorption profiles indicate that Form I is non-hygroscopic. Moisture sorption/desorption data were collected on a VTI SGA-100 Vapor Sorption Analyzer, calibrated using sodium chloride and polyvinylpyrrolidone as calibration standards. Sorption and desorption data were collected over a range of 5% to 95% relative humidity (RH) at 10% RH interval under a nitrogen purge. Samples were not dried prior to analysis. Equilibrium criteria used for analysis were less than 0.0100% weight change in 5 minutes, with a maximum equilibration time of 3 hours if the weight criterion was not met. Data were not corrected for the initial moisture content of the sample.

For `C[C@H](c1cc2ccccc2s1)N(O)C(N)=O` [Form I, (+)-R-zileuton], the “weight change in adsorption profile” value (RH below 40%, FIG. 3) was “essentially no weight change”, the “hygroscopicity from vapor sorption/desorption profiles” value (RH between 5% and 95%) was “non-hygroscopic” and the “weight gain in adsorption profile” value (steady gain from RH 40% until RH reaches 95%, 10% RH interval, FIG. 3) was “approximately 2%”.
